In patent publication US20260274794A1, “COMPOUNDS, COMPOSITIONS, AND METHOD OF INHIBITING TAU PROTEIN AND ALPHASYNUCLEIN AGGREGATION” (Purdue Research Foundation, priority 2023, published 2026):
“Also recorded” adds a separate entry of the source.

Columns and labels:
Format in all cases: biochemical
α-syn [1] = target: T1, α-syn (Homo sapiens, UniProt P37840); assay: Western blot (anti-oligo A11, anti-α-syn) of uncross-linked α-syn; conditions: compound 600 μM, α-syn 60 μM, 37° C., 24 hours
Protocol: To validate the PICUP results, the uncross linked α-syn (produced in Dr. Rochet lab) was incubated at a final concentration of 60 μM in 10 mM phosphate buffer (pH 7.4) with the presence of vehicle (1.5% DMSO), the amide compounds of interest (Compounds 2, 8, 17), and the weak anti-fibrillization inhibitor (compound 13). Compounds were tested at a final concentration of 600 μM (molar ratio 1:10). Samples were incubated for 24 h and 48 h with constant shaking 300 rpm at 37° C. (VWR Thermal Shake Touch, Troemner, LLC, Thorofare, NJ). After completion of the incubation time, samples were mixed with one third volume of above-mentioned loading buffer and separated by electrophoresis in a 16% SDS-Page gel. […] Nitrocellulose membranes were exposed to the monoclonal antibodies diluted at 1/1000 using a 5% non-fat dried milk with TBS and 0.1% Tween-20 (TBS-T) for 12 h at 4° C. Peroxidase conjugated secondary antibodies consisted of an anti-rabbit (Rockland Immunochemicals, inc., Pottstown, PA, cat. #611-1322-0100) and an anti-mouse (Rockland, cat. #610-1319-0100) utilized at a dilution of 1/5000 in 5% non-fat dried milk with TBS-T for one hour at room temperature. The membranes were then exposed to a 1:1 ratio of enhanced chemiluminescent solution (Thermo Scientific, Rockford, IL, cat. #32209) for one minute before the acquisition of images using a SynGene G;Box scanner (model Chemi XR 5 and the G:Box Chemi-XRQ GENESYS software.
One limitation of the PICUP is the generation of free radicals which can be quenched by aromatic compounds resulting in false positives. For this reason, results obtained by PICUP were validated using the uncross-linked α-syn. High concentration of different compounds (600 μM; molar ratio of 1:10) were incubated at 37° C. for 24 hours with 60 μM of α-syn and separated by electrophoresis in 16% SDS-PAGE gels. Western blots using polyclonal anti-oligo A11 and monoclonal anti-α-syn were assessed to detect the high molecular weight oligomers and monomeric α-syn, respectively.

tau isoform 2N4R [2] = target: T2, tau isoform 2N4R (Homo sapiens, UniProt P10636); assay: Transmission electron microscopy of tau isoform 2N4R fibrils; conditions: compound 100 μM, 50-hours exposure; reproduced at higher concentrations, molar ratio 1:10
T2 construct: made in house; host or cells: E. coli BL21 (DE3), vector pRK172
Protocol: (§1) For the examination of ultrastructural changes, 60 μM of proteins (α-syn and tau isoform 2N4R) in contact with DMSO or 600 μM of compound were incubated in a 10 mM PBS buffer (pH 7.4) for 24 h at 37° C. (molar ratio 1:10). Samples at the end of tau ThT kinetics of fibril formation were also analyzed at similar molar ratio with 6 time less concentrated samples. For the preparation of grids prior examination, a volume of 10 μL if each sample was applied on a 400-mesh Formvar-carbon-coated copper grid (Electron Microscopy Sciences, Hatfield, PA). The grids were incubated for 1 minute with the sample and after washed three times with distilled water, After being air-dried, a fresh solution of 1% uranyl acetate was applied for 1 minute. Solution was absorbed with filter paper and grids were air-dried. Evaluation of grids were performed using a transmission microscope (JEOL 1400 Flash, Japan). Transmission electron micrographs were captured using an accelerating voltage of 100 kV and magnification of 40 k.
(§2) To confirm that the reduction of ThT fluorescence observed with compounds 2, 8, and 17 was due to the reduction in protein fibrillization rather than interference with ThT [31], transmission electron microscopy (TEM) of α-syn and tau isoform 2N4R with these same compounds was utilized to visualize direct changes in α-syn and tau isoform 2N4R fibril morphology after 24-hours exposure (FIG. 5). […] Results were reproduced using the tau isoform 2N4R and different compounds at the above-mentioned higher concentrations using the identical molar ratio and incubation time. […] Compound 2 was the only candidate resulting in a grid quasi exempt of fibrils.

α-syn [3] = target: T1, α-syn; assay: Transmission electron microscopy of α-syn fibrils; conditions: 60 μM α-syn: 600 μM compound, 24-hours exposure
Protocol: as §1, §2

tau isoform 2N4R [4] = target: T2, tau isoform 2N4R; assay: ThT fluorescence assay of tau isoform 2N4R fibril formation; conditions: for effect on tau isoform 2N4R fibril formation (ThT): compound 100 μM, tau 2N4R 6 μM; for tau isoform 2N4R fibrillization, ThT dose-response: compound 3.125-100 μM, tau 6 μM, plateau phase
Protocol: ThT fluorescence is routinely established assay to follow the kinetics of α-syn fibril formation with different drug candidate treatments. Compounds were first tested at a final of concentration of 100 μM and α-syn and 2N4R tau were prepared at 2 μM and 6 μM, respectively. Compounds with highest anti-fibrillary activity were tested at 3.125, 6.25, 12.5, 25, 50, and 100 μM to obtain dose-response curves.
Concerning the non-phosphorylated tau (isoform 2N4R) kinetics of fibril formation, ThT was performed with the tau protein solution was diluted to a final concentration of 6 μM in PBS (pH 7.4) supplemented with 1.5 μM heparin, 20 μM ThT, 2.5 mM DTT, and 100 μM compound. Aliquots of the diluted protein solution (100 μL each) were pipetted into the wells of a 96-well plate, and a Teflon ball was added to each well. The plate was incubated at 37° C. with constant shaking at 1,000 rpm in a Tecan Stark plate reader. ThT fluorescence was measured every 15 min with excitation and emission wavelengths of 440 nm and 480 nm, and the data were plotted using GraphPad Prism.
Various structural analogs were first tested at a final concentration of 100 μM in the presence of tau 2N4R at 6 μM. Compounds 2, 4-8, and 17 were pre-selected with α-syn ThT assay prior to evaluation on the tau isoform 2N4R.

T2 sequence (P10636 1-441 isoform P10636-8): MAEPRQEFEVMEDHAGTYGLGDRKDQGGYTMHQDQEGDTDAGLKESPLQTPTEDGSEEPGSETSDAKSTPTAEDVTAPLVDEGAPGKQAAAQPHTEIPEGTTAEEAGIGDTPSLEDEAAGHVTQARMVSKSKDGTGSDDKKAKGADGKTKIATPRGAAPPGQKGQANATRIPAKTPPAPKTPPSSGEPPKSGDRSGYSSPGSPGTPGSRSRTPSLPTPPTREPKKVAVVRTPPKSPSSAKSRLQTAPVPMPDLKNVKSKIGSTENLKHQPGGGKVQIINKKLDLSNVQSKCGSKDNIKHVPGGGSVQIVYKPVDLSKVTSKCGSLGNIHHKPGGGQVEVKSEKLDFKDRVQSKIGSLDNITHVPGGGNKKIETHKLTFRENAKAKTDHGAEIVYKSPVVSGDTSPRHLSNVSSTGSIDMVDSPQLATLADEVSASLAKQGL

effect on tau isoform 2N4R fibril formation (ThT) (tau isoform 2N4R [4])	SMILES	oligomeric species bands of uncross-linked α-syn (Western blot) (α-syn [1])	tau isoform 2N4R fibril morphology (TEM) (tau isoform 2N4R [2])	α-syn fibril morphology (TEM) (α-syn [3])	tau isoform 2N4R fibrillization, ThT dose-response (tau isoform 2N4R [4])
weaker anti-fibrilization effect	O=C(Nc1cccc2[nH]ccc12)c1ccccc1 [Compound 2, N-(1H-indol-4-yl)benzamide]	narrow, less intense bands compared to control	levels of tau fibril at 20 μM were reduced; also recorded: Fewer and not well-defined fibrils	clear effect in reducing α-syn fibrillization	reduction in protein fibrillization when subjected to higher concentrations
good inhibitory effect	O=C(Nc1cccc2[nH]ccc12)c1ccc(F)cc1 [Compound 8, 4-fluoro-N-(1H-indol-4-yl)benzamide]	narrow, less intense bands compared to control	levels of tau fibril at 20 μM were reduced	clear effect in reducing α-syn fibrillization; also recorded: most drastic effect, with immature fibrils surrounded by irregular globular structures	reduction in protein fibrillization when subjected to higher concentrations
increased the fluorescence intensity	O=C(Nc1ccc2[nH]ccc2c1)c1ccccc1Cl [Compound 13, 2-chloro-N-(1H-indol-5-yl)benzamide]	did not reduce the intensity of the bands	long fibrils admixed with amorphous materials and/or debris	mature fibrils after 24 hours	–
